# Experimental data: patent US9394305B2, “Substituted imidazo[1,2-a]pyridine compounds as tropomyosin receptor kinase a (TrkA) inhibitors” (Dr. Reddy's Laboratories Ltd., priority 2014, dated 2016)
# Biological target: T1, TrkA kinase (Homo sapiens, UniProt P04629)
# T1 construct: purchased Upstate, USA
# Assay: In vitro TrkA inhibitory activity using TR-FRET assay
# Assay type: biochemical
# Conditions: 5 ng TrkA, 500 μM ATP, values given as bins, read-out: TrkA inhibition in-vitro IC50
# Description: Compounds were screened in the TR-FRET assay with TrkA kinase. 5 ng of TrkA [Upstate, USA] kinase was used for assay. The compound was incubated with the kinase for 30 minutes at 20-35° C. After the incubation, substrate mix [40 nM Ultra light poly GT (Perkin Elmer, USA) and 500 μM ATP] was added. The above reaction was stopped by the addition of 40 mM EDTA after 30 minutes. The Eu-labelled antiphospho-tyrosine antibody [Perkin Elmer, USA] was added at 0.5 nM and the fluorescence emission at 615 nm/665 nm [excitation at 340 nm] was measured. The compounds were initially screened at 100 nM, 1 μM and 10 μM concentrations. The potent compounds with >25% inhibition at 1 μM of TrkA were taken for the full dose response studies. The final DMSO concentration in the assay was […]. For IC50 determination, ⅓^rd serial dilution was made from the 20 mM DMSO stock solution. 2 μl of these were transferred to the test wells containing 20 μl reaction mixture [Total reaction volume 22 μl]. The fluorescence was measured in Perkin Elmer Wallac 1420 Multilabel Counter Victor 3. The IC50 was determined by fitting the dose response data to a sigmoidal curve fitting equation using GraphPad Prism software version 5.
# T1 sequence (P04629 33-796): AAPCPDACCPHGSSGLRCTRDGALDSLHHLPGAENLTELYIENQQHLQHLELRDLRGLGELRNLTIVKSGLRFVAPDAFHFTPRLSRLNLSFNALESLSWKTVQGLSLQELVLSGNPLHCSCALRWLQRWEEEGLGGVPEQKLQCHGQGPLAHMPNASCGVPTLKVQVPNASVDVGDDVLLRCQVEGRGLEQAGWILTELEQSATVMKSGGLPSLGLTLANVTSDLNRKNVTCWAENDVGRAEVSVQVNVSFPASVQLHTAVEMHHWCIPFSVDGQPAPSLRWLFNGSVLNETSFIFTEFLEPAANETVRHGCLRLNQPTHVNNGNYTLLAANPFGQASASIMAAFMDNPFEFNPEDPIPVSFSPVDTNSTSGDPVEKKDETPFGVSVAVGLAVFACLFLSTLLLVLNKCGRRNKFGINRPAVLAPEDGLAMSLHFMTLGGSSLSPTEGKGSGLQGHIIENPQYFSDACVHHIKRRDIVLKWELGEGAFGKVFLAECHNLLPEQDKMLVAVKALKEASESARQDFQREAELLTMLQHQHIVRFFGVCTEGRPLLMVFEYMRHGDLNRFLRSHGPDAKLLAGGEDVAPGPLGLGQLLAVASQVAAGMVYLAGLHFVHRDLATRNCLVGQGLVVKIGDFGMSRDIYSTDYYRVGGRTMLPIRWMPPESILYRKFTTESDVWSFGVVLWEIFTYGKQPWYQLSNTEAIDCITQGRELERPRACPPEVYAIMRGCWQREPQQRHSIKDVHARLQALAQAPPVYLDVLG
row,Structure (SMILES),IC50 [nM]
1,"C[C@@H](CO)NC(=O)c1cnc2ccc(N3CCC[C@@H]3c3cc(F)ccc3F)cn12 [Example 28, 6-((R)-2-(2,5-difluorophenyl)pyrrolidin-1-yl)-N—((S)-1-hydroxypropan-2-yl)imidazo[1,2-a]pyridine-3-carboxamide]",100 to 500
2,"O=C(NC1CCOCC1)c1cnc2ccc(N3CCC[C@@H]3c3cc(F)ccc3F)cn12 [Example 30, (R)-6-(2-(2,5-difluorophenyl)pyrrolidin-1-yl)-N-(tetrahydro-2H-pyran-4-yl)imidazo[1,2-a]pyridine-3-carboxamide]",100 to 500
3,"CC(C)(C)S(=O)(=O)NC(=O)c1cnc2ccc(N3CCC[C@@H]3c3cc(F)ccc3F)cn12 [Example 31, (R)—N-(tert-butylsulfonyl)-6-(2-(2,5-difluorophenyl)pyrrolidin-1-yl)imidazo[1,2-a]pyridine-3-carboxamide]",100 to 500
4,"CC1(S(=O)(=O)NC(=O)c2cnc3ccc(N4CCC[C@@H]4c4cc(F)ccc4F)cn23)CC1 [Example 32, (R)-6-(2-(2,5-difluorophenyl)pyrrolidin-1-yl)-N-((1-methylcyclopropyl)sulfonyl)imidazo[1,2-a]pyridine-3-carboxamide]",50 to 100
5,"O=C(NS(=O)(=O)c1ccc(N2CC[C@H](O)C2)nc1)c1cnc2ccc(N3CCC[C@@H]3c3cc(F)ccc3F)cn12 [Example 33, 6-((R)-2-(2,5-difluorophenyl)pyrrolidin-1-yl)-N-((6-((S)-3-hydroxypyrrolidin-1-yl)pyridin-3-yl)sulfonyl)imidazo[1,2-a]pyridine-3-carboxamide]",100 to 500
6,"CCN(C)S(=O)(=O)NC(=O)c1cnc2ccc(N3CCC[C@@H]3c3cc(F)ccc3F)cn12 [Example 34, (R)-6-(2-(2,5-difluorophenyl)pyrrolidin-1-yl)-N-(N-ethyl-N-methylsulfamoyl)imidazo[1,2-a]pyridine-3-carboxamide]",≤ 50
7,"O=C(NS(=O)(=O)c1ccc(-n2cncn2)cc1)c1cnc2ccc(N3CCC[C@@H]3c3cc(F)ccc3F)cn12 [Example 35, (R)-N-((4-(1H-1,2,4-triazol-1-yl)phenyl)sulfonyl)-6-(2-(2,5-difluorophenyl)pyrrolidin-1-yl)imidazo[1,2-a]pyridine-3-carboxamide]",50 to 100
8,"O=C(NS(=O)(=O)c1ccc(N2CC[C@H](O)C2)cc1)c1cnc2ccc(N3CCC[C@@H]3c3cc(F)ccc3F)cn12 [Example 36, 6-((R)-2-(2,5-difluorophenyl)pyrrolidin-1-yl)-N-((4-((S)-3-hydroxypyrrolidin-1-yl)phenyl)sulfonyl)imidazo[1,2-a]pyridine-3-carboxamide]",100 to 500
9,"CCCN(C)S(=O)(=O)NC(=O)c1cnc2ccc(N3CCC[C@@H]3c3cc(F)ccc3F)cn12 [Example 37, (R)-6-(2-(2,5-difluorophenyl)pyrrolidin-1-yl)-N-(N-methyl-N-propylsulfamoyl)imidazo[1,2-a]pyridine-3-carboxamide]",≤ 50
10,"CN(CCF)S(=O)(=O)NC(=O)c1cnc2ccc(N3CCC[C@@H]3c3cc(F)ccc3F)cn12 [Example 38, (R)-6-(2-(2,5-difluorophenyl)pyrrolidin-1-yl)-N-(N-(2-fluoroethyl)-N-methylsulfamoyl)imidazo[1,2-a]pyridine-3-carboxamide]",≤ 50
11,"COCCN(C)S(=O)(=O)NC(=O)c1cnc2ccc(N3CCC[C@@H]3c3cc(F)ccc3F)cn12 [Example 39, (R)-6-(2-(2,5-difluorophenyl)pyrrolidin-1-yl)-N-(N-(2-methoxyethyl)-N-methylsulfamoyl)imidazo[1,2-a]pyridine-3-carboxamide]",≤ 50

# Same assay, conditions: bin with mixed units (lower bound nM, upper bound μM), read-out: TrkA inhibitory activity in-vitro IC50
row,Structure (SMILES),IC50 [nM]
1,"O=C(NN1CCCCC1)c1cnc2ccc(N3CCC[C@@H]3c3cc(F)ccc3F)cn12 [Example 27, (R)-6-(2-(2,5-difluorophenyl)pyrrolidin-1-yl)-N-(piperidin-1-yl)imidazo[1,2-a]pyridine-3-carboxamide]",500 to 1000
